# Source: patent US8076338B2, “Kinase modulators and methods of use” (Exelixis, Inc., priority 2004, dated 2011)
# Where two headings read alike, the source gives them in different places.
# Assays:
# AktK = AktK (Homo sapiens, UniProt P31749); assay: Luciferase-coupled chemiluminescence kinase assay (ATP consumption); assay type: biochemical; conditions: read-out: AKT-1 IC50
# How it was run: (§1)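 Enzyme at 2.5-5 nM was preincubated 30 min at room temperature with compound in Tris pH 7.5, MgCl2, TX-100, DTT, then reacted with ATP for 3 h at ambient temperature. Remaining ATP was quantified by luciferase-luciferin chemiluminescence, with consumption kept at 25-60%; […].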
# p70S6K = p70S6K (Homo sapiens, UniProt P23443); assay: as above; assay type: biochemical
# Sequence of p70S6K (P23443 whole entry): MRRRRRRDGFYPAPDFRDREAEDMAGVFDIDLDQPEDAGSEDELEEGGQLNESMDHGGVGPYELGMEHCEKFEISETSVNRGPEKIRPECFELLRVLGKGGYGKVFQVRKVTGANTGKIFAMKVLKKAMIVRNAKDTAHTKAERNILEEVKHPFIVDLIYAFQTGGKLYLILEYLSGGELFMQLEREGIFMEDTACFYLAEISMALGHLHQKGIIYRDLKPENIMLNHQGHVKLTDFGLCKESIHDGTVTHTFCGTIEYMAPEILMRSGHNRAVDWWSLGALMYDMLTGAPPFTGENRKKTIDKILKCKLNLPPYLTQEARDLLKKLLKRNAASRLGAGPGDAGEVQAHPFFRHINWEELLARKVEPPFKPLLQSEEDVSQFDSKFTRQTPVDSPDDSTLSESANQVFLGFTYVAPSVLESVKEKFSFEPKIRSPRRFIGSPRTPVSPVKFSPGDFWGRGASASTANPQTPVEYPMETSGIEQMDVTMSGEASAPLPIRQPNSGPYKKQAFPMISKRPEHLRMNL
# How it was run: as §1
# Sequence of AktK (P31749 whole entry): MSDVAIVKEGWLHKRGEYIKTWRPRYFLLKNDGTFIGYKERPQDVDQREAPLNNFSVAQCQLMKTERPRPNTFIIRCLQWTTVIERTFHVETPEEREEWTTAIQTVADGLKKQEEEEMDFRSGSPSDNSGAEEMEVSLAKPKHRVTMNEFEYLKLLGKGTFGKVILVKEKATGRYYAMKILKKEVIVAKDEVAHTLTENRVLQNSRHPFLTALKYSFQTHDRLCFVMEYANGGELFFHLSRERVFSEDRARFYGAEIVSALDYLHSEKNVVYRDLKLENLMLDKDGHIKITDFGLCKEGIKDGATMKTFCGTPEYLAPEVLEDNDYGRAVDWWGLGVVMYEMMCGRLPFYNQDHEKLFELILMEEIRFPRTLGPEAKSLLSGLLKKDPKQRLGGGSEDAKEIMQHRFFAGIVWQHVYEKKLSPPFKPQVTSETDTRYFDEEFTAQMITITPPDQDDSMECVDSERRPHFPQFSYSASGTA
Compound,"IC50 (AktK; Table 1, class symbols per key) [nM]","IC50 (p70S6K; Table 1, class symbols per key) [nM]",IC50 (AktK) [nM],IC50 (p70S6K) [nM]
"CCc1n[nH]c2ncnc(N3CCN(c4cc(Cl)cc(CCCN(CC)CC)c4C)CC3)c12 [Entry 402, 3-{5-chloro-3-[4-(3-ethyl-1H-pyrazolo[3,4-d]pyrimidin-4-yl)piperazin-1-yl]-2-methylphenyl}-N,N-diethylpropan-1-amine]",–,–,100 to 1000,< 100
"CCCOc1cc(NCCN2CCCC2)c(C)c(N2CCN(c3ncnc4[nH]nc(Br)c34)CC2)c1 [Entry 224, 3-[4-(3-bromo-1H-pyrazolo[3,4-d]pyrimidin-4-yl)piperazin-1-yl]-2-methyl-5-(propyloxy)-N-(2-pyrrolidin-1-ylethyl)aniline]",< 100,< 100,–,–
"CC(=O)c1ccc(N2CCN(c3ncnc4[nH]nc(Br)c34)CC2)cc1 [Entry 94, 1-{4-[4-(3-bromo-1H-pyrazolo[3,4-d]pyrimidin-4-yl)piperazin-1-yl]phenyl}ethanone]",1000 to 10000,100 to 1000,–,–
"CCN1CCN(CCOc2cc(Cl)cc(N3CCN(c4ncnc5[nH]nc(C(F)(F)F)c45)CC3)c2C)CC1 [Entry 81, 4-[4-(5-chloro-3-{[2-(4-ethylpiperazin-1-yl)ethyl]oxy}-2-methylphenyl)piperazin-1-yl]-3-(trifluoromethyl)-1H-pyrazolo[3,4-d]pyrimidine]",100 to 1000,< 100,–,–
"Cc1nc(N2CCN(c3cc(Cl)ccc3C)CC2)c2cn[nH]c2n1 [Entry 324, 4-[4-(5-chloro-2-methylphenyl)piperazin-1-yl]-6-methyl-1H-pyrazolo[3,4-d]pyrimidine]",–,–,1000 to 10000,1000 to 10000
"CCc1n[nH]c2ncnc(N3CCN(c4cccc(Cl)c4)CC3)c12 [Entry 333, 4-[4-(3-chlorophenyl)piperazin-1-yl]-3-ethyl-1H-pyrazolo[3,4-d]pyrimidine]",–,–,1000 to 10000,< 100
"CCc1n[nH]c2ncnc(N3CCN(c4cc(Cl)cc(OCCN5CCN(CC)CC5)c4C)CC3)c12 [Entry 25, 4-[4-(5-chloro-3-{[2-(4-ethylpiperazin-1-yl)ethyl]oxy}-2-methylphenyl)piperazin-1-yl]-3-ethyl-1H-pyrazolo[3,4-d]pyrimidine]",1000 to 10000,< 100,–,–
"FC(F)(F)c1cccc(N2CCN(c3ncnc4[nH]ncc34)CC2)c1 [Entry 316, 4-{4-[3-(trifluoromethyl)phenyl]piperazin-1-yl}-1H-pyrazolo[3,4-d]pyrimidine]",–,–,≥ 10000,< 100
"Fc1ccc(N2CCN(c3ncnc4[nH]nc(Br)c34)CC2)cc1F [Entry 76, 3-bromo-4-[4-(3,4-difluorophenyl)piperazin-1-yl]-1H-pyrazolo[3,4-d]pyrimidine]",≥ 10000,100 to 1000,–,–
"Cc1c(NCCN2CCCC2)cc(OCC(F)(CF)CF)cc1N1CCN(c2ncnc3[nH]nc(C#CCO)c23)CC1 [Entry 288, 3-[4-(4-{5-{[2,3-difluoro-2-(fluoromethyl)pro-pyl]oxy}-2-methyl-3-[(2-pyrrolidin-1-ylethyl)a-mino]phenyl}piperazin-1-yl)-1H-pyrazolo[3,4-d]pyrimidin-3-yl]prop-2-yn-1-ol]",< 100,< 100,–,–
"Cc1c(CCCN2CCCC2)cc(OCC(C)C)cc1N1CCN(c2ncnc3[nH]nc(Br)c23)CC1 [Entry 240, 3-bromo-4-{4-[2-methyl-5-[(2-methylpropyl)oxy]-3-(3-pyrrolidin-1-ylpropyl)phenyl]piperazin-1-yl}-1H-pyrazolo[3,4-d]pyrimidine]",< 100,< 100,–,–
"Cc1c(Br)cc(C(=O)Nc2ccccc2)cc1N1CCN(c2ncnc3[nH]nc(Br)c23)CC1 [Entry 191, 3-bromo-5-[4-(3-bromo-1H-pyrazolo[3,4-d]pyrimidin-4-yl)piperazin-1-yl]-4-methyl-N-phenylbenzamide]",100 to 1000,< 100,–,–
"N#Cc1ccccc1N1CCN(c2ncnc3[nH]nc(Br)c23)CC1 [Entry 122, 2-[4-(3-bromo-1H-pyrazolo[3,4-d]pyrimidin-4-yl)piperazin-1-yl]benzonitrile]",≥ 10000,100 to 1000,–,–
"CCN(CC)CCCc1cc(Cl)cc(N2CCN(c3ncnc4[nH]nc(C(F)(F)F)c34)CC2)c1C [Entry 87, 3-(5-chloro-2-methyl-3-{4-[3-(trifluoromethyl)-1H-pyrazolo[3,4-d]pyrimidin-4-yl]piperazin-1-yl}phenyl)-N,N-diethylpropan-1-amine]",100 to 1000,< 100,–,–

# Second part, the compound after the results:
"IC50 (AktK; Table 1, class symbols per key) [nM]","IC50 (p70S6K; Table 1, class symbols per key) [nM]",IC50 (AktK) [nM],IC50 (p70S6K) [nM],Compound
100 to 1000,< 100,–,–,"Cc1ccc(Cl)cc1N1CCN(c2ncnc3[nH]nc(Br)c23)C[C@@H]1C [Entry 164, 3-bromo-4-[(3S)-4-(5-chloro-2-methylphenyl)-3-methylpiperazin-1-yl]-1H-pyrazolo[3,4-d]pyrimidine]"
1000 to 10000,< 100,–,–,"CCc1n[nH]c2ncnc(N3CCN(c4cc(Cl)cc(OCCN5CCCCC5)c4C)CC3)c12 [Entry 17, 4-(4-{5-chloro-2-methyl-3-[(2-piperidin-1-ylethyl)oxy]phenyl}piperazin-1-yl)-3-ethyl-1H-pyrazolo[3,4-d]pyrimidine]"
–,–,≥ 10000,100 to 1000,"c1ccc(N2CCN(c3ncnc4[nH]ncc34)CC2)cc1 [Entry 297, 4-(4-phenylpiperazin-1-yl)-1H-pyrazolo[3,4-d]pyrimidine]"
< 100,< 100,–,–,"Cc1c(CCCN2CCCCC2)cc(Cl)cc1N1CCN(c2ncnc3[nH]nc(Br)c23)CC1 [Entry 27, 3-bromo-4-{4-[5-chloro-2-methyl-3-(3-piperidin-1-ylpropyl)phenyl]piperazin-1-yl}-1H-pyrazolo[3,4-d]pyrimidine]"
–,–,1000 to 10000,1000 to 10000,"Cc1ccc(Cl)cc1N1CCN(c2ncnc3[nH]nc(/C=C4/C[C@H]5CNC[C@H]5C4)c23)CC1 [Entry 396, 4-[4-(5-chloro-2-methylphenyl)piperazin-1-yl]-3-[(E)-(3aR,6aS)-hexahydrocyclopenta[c]pyrrol-5(1H)-ylidenemethyl]-1H-pyrazolo[3,4-d]pyrimidine]"
–,–,≥ 10000,1000 to 10000,"Fc1ccccc1N1CCN(c2ncnc3[nH]cnc23)CC1 [Entry 300, 6-[4-(2-fluorophenyl)piperazin-1-yl]-9H-purine]"
–,–,1000 to 10000,< 100,"CCN(CC)CC#Cc1n[nH]c2ncnc(N3CCN(c4cc(Cl)ccc4C)CC3)c12 [Entry 392, 3-{4-[4-(5-chloro-2-methylphenyl)piperazin-1-yl]-1H-pyrazolo[3,4-d]pyrimidin-3-yl}-N,N-diethylprop-2-yn-1-amine]"
–,–,1000 to 10000,1000 to 10000,"CCc1nc(N2CCN(c3cc(Cl)ccc3C)CC2)c2cn[nH]c2n1 [Entry 325, 4-[4-(5-chloro-2-methylphenyl)piperazin-1-yl]-6-ethyl-1H-pyrazolo[3,4-d]pyrimidine]"
–,–,1000 to 10000,< 100,"COCCOCc1n[nH]c2ncnc(N3CCN(c4cc(Cl)ccc4C)CC3)c12 [Entry 328, 4-[4-(5-chloro-2-methylphenyl)piperazin-1-yl]-3-({[2-(methyloxy)ethyl]oxy}methyl)-1H-pyrazolo[3,4-d]pyrimidine]"
–,–,≥ 10000,100 to 1000,"Fc1ccccc1N1CCN(c2ncnc3[nH]ccc23)CC1 [Entry 313, 4-[4-(2-fluorophenyl)piperazin-1-yl]-7H-pyrrolo[2,3-d]pyrimidine]"
100 to 1000,< 100,–,–,"CCc1n[nH]c2ncnc(N3CCN(c4cc(Cl)cc(OCC5CCN(C)CC5)c4C)CC3)c12 [Entry 31, 4-[4-(5-chloro-2-methyl-3-{[(1-methylpiperidin-4-yl)methyl]oxy}phenyl)piperazin-1-yl]-3-ethyl-1H-pyrazolo[3,4-d]pyrimidine]"
–,–,1000 to 10000,< 100,"CCc1n[nH]c2ncnc(N3CCN(c4cc(Cl)cc(CO)c4OC)CC3)c12 [Entry 367, [5-chloro-3-[4-(3-ethyl-1H-pyrazolo[3,4-d]pyrimidin-4-yl)piperazin-1-yl]-2-(methyloxy)phenyl]methanol]"
–,–,1000 to 10000,100 to 1000,"Cc1ccc(Cl)cc1N1CCN(c2ncnc3[nH]nc(/C=C/C(=O)OC(C)(C)C)c23)CC1 [Entry 387, 1,1-dimethylethyl (2E)-3-{4-[4-(5-chloro-2-methylphenyl)piperazin-1-yl]-1H-pyrazolo[3,4-d]pyrimidin-3-yl}prop-2-enoate]"
100 to 1000,< 100,–,–,"CCc1n[nH]c2ncnc(N3CCN(c4cc(Cl)cc(OCCCN5CCN(C)CC5)c4C)CC3)c12 [Entry 36, 4-[4-(5-chloro-2-methyl-3-{[3-(4-methylpiperazin-1-yl)propyl]oxy}phenyl)piperazin-1-yl]-3-ethyl-1H-pyrazolo[3,4-d]pyrimidine]"
100 to 1000,< 100,–,–,"CNC(=O)c1cc(NCCN2CCCC2)c(C)c(N2CCN(c3ncnc4[nH]nc(Br)c34)CC2)c1 [Entry 202, 3-[4-(3-bromo-1H-pyrazolo[3,4-d]pyrimidin-4-yl)piperazin-1-yl]-N,4-dimethyl-5-[(2-pyrrolidin-1-ylethyl)amino]benzamide]"
< 100,< 100,–,–,"Cc1c(NCCN2CCCC2)cc(C(=O)Nc2cccnc2)cc1N1CCN(c2ncnc3[nH]nc(Br)c23)CC1 [Entry 215, [4-(3-bromo-1H-pyrazolo[3,4-d]pyrimidin-4-yl)piperazin-1-yl]-4-methyl-N-pyridin-3-yl-5-[(2-pyrrolidin-1-ylethyl)amino]benzamide]"
< 100,< 100,–,–,"3-bromo-4-{4-[5-{[2,3-difluoro-2-(fluorometh-yl)propyl]oxy}-2-methyl-3-(3-pyrrolidin-1-ylpropyl)phenyl]piperazin-1-yl}-1H-pyrazolo[3,4-d]pyrimidine [Entry 239]"
≥ 10000,< 100,–,–,"CCc1n[nH]c2ncnc(N3CCN(c4cccc(OC)c4C)CC3)c12 [Entry 145, 3-ethyl-4-{4-[2-methyl-3-(methyloxy)phenyl]piper-azin-1-yl}-1H-pyrazolo[3,4-d]pyrimidine]"
